Test results published in patent publication US10487068B2, “Pyridazine derivatives as RORc modulators” (Genentech, Inc., priority 2015, dated 2019).

Target: T1, RORc ligand binding domain (Homo sapiens, UniProt P51449)
T1 sequence (P51449 269-508 limits assumed): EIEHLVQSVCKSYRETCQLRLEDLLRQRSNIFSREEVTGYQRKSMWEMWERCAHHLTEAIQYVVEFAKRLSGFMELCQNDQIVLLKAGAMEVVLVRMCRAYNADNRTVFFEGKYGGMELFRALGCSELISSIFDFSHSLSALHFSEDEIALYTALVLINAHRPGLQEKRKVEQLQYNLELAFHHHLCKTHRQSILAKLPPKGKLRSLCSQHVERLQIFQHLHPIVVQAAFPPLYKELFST
Assay: In Vitro RORc Ligand Binding Assay
Conditions: RORc IC50, radioligand 25-[3H]hydroxycholesterol 6 nM; 0.6 ug/mL RORc receptor; 3 h at 25° C.

IC50 [nM]	SMILES
1.5	CC(C)(O)c1noc(-c2cccc([C@@]34CC[C@@H](c5cc(-c6c(F)cccc6F)nnc53)C4(C)C)n2)n1 [Example 314, 2-(5-(6-((5R,8S)-3-(2,6-difluorophenyl)-9,9-dimethyl-5,6,7,8-tetrahydro-5,8-methanocinnolin-8-yl)pyridin-2-yl)-1,2,4-oxadiazol-3-yl)propan-2-ol]
94.1	CC1(C)[C@H]2CC[C@]1(c1cncc(OCC(N)=O)n1)c1nnc(-c3c(F)cccc3F)cc12 [Example 315, 2-((6-((5R,8S)-3-(2,6-difluorophenyl)-9,9-dimethyl-5,6,7,8-tetrahydro-5,8-methanocinnolin-8-yl)pyrazin-2-yl)oxy)acetamide]
36.4	CC(C)(O)COc1cncc([C@@]23CC[C@@H](c4cc(-c5c(F)cccc5F)nnc42)C3(C)C)n1 [Example 316, 1-((6-((5R,8S)-3-(2,6-difluorophenyl)-9,9-dimethyl-5,6,7,8-tetrahydro-5,8-methanocinnolin-8-yl)pyrazin-2-yl)oxy)-2-methylpropan-2-ol]
9.2	CC1(C)[C@H]2CC[C@]1(c1cccc(-c3nc(C4(O)CC4)n[nH]3)n1)c1nnc(-c3c(F)cccc3F)cc12 [Example 317, 1-(5-(6-((5R,8S)-3-(2,6-difluorophenyl)-9,9-dimethyl-5,6,7,8-tetrahydro-5,8-methanocinnolin-8-yl)pyridin-2-yl)-1H-1,2,4-triazol-3-yl)cyclopropanol]
10.8	CC[C@@H](O)c1n[nH]c(-c2cccc([C@@]34CC[C@@H](c5cc(-c6c(F)cccc6F)nnc53)C4(C)C)n2)n1 [Example 318, (R)-1-(5-(6-((5R,8S)-3-(2,6-difluorophenyl)-9,9-dimethyl-5,6,7,8-tetrahydro-5,8-methanocinnolin-8-yl)pyridin-2-yl)-1H-1,2,4-triazol-3-yl)propan-1-ol]
9	CC1(C)[C@H]2CC[C@]1(c1cccc(-c3nc(C4(O)COC4)n[nH]3)n1)c1nnc(-c3c(F)cccc3F)cc12 [Example 320, 3-(5-(6-((5R,8S)-3-(2,6-difluorophenyl)-9,9-dimethyl-5,6,7,8-tetrahydro-5,8-methanocinnolin-8-yl)pyridin-2-yl)-1H-1,2,4-triazol-3-yl)oxetan-3-ol]
12.7	CC1(C)[C@H]2CC[C@]1(c1cccc(-c3nc(CS(C)(=O)=O)n[nH]3)n1)c1nnc(-c3c(F)cccc3F)cc12 [Example 321]
11.5	CC[C@H](O)c1n[nH]c(-c2cccc([C@@]34CC[C@@H](c5cc(-c6c(F)cccc6F)nnc53)C4(C)C)n2)n1 [Example 322, (S)-1-(5-(6-((5R,8S)-3-(2,6-difluorophenyl)-9,9-dimethyl-5,6,7,8-tetrahydro-5,8-methanocinnolin-8-yl)pyridin-2-yl)-1H-1,2,4-triazol-3-yl)propan-1-ol]
11.2	CC1(C)[C@H]2CC[C@]1(c1ccnc(-n3cnc(CC(N)=O)n3)n1)c1nnc(-c3c(F)cccc3F)cc12 [Example 323]
9.5	CC(C)(O)Cc1ccn(-c2nccc([C@@]34CC[C@@H](c5cc(-c6c(F)cccc6F)nnc53)C4(C)C)n2)n1 [Example 324]
6.7	CC1(C)[C@H]2CC[C@]1(c1cncc(-c3nc(C(N)=O)co3)n1)c1nnc(-c3c(F)cccc3F)cc12 [Example 325, 2-(6-((5R,8S)-3-(2,6-difluorophenyl)-9,9-dimethyl-5,6,7,8-tetrahydro-5,8-methanocinnolin-8-yl)pyrazin-2-yl)oxazole-4-carboxamide]
10.1	CC1(C)[C@H]2CC[C@]1(c1cncc(-c3nc(C(=O)NCCO)co3)n1)c1nnc(-c3c(F)cccc3F)cc12 [Example 326, 2-(6-((5R,8S)-3-(2,6-difluorophenyl)-9,9-dimethyl-5,6,7,8-tetrahydro-5,8-methanocinnolin-8-yl)pyrazin-2-yl)-N-(2-hydroxyethyl)oxazole-4-carboxamide]
2.2	CC1(C)[C@H]2CC[C@]1(c1ccnc(N3CCOCC3)n1)c1nnc(-c3c(F)cccc3F)cc12 [Example 328]
2.8	CC1(C)[C@H]2CC[C@]1(c1ccnc(N3CCCC3)n1)c1nnc(-c3c(F)cccc3F)cc12 [Example 329]
4.6	CC1(C)[C@H]2CC[C@]1(c1ccnc(N3CC[C@H](O)C3)n1)c1nnc(-c3c(F)cccc3F)cc12 [Example 330]
4.8	CC1(C)[C@H]2CC[C@]1(c1ccnc(OCCO)n1)c1nnc(-c3c(F)cccc3F)cc12 [Example 333]
5	CC1(C)[C@H]2CC[C@]1(c1ccnc(N3CCO[C@@H](CO)C3)n1)c1nnc(-c3c(F)cccc3F)cc12 [Example 334]
6.2	CC1(C)[C@H]2CC[C@]1(c1ccnc(N3CCO[C@H](CO)C3)n1)c1nnc(-c3c(F)cccc3F)cc12 [Example 335]
13	CC1(C)[C@H]2CC[C@]1(c1ccnc(N3CC4(CCO4)C3)n1)c1nnc(-c3c(F)cccc3F)cc12 [Example 336]
6	CC1(C)[C@H]2CC[C@]1(c1ccnc(N3CCNC(=O)C3)n1)c1nnc(-c3c(F)cccc3F)cc12 [Example 337]
3.2	CC1(C)[C@H]2CC[C@]1(c1ccnc(N3CCN(S(C)(=O)=O)CC3)n1)c1nnc(-c3c(F)cccc3F)cc12 [Example 338]
5.6	CC1(C)[C@H]2CC[C@]1(c1cccc(-c3nc([C@@H](O)C(F)(F)F)n[nH]3)n1)c1nnc(-c3c(F)cccc3F)cc12 [Example 339, (R)-1-(5-(6-((5R,8S)-3-(2,6-difluorophenyl)-9,9-dimethyl-5,6,7,8-tetrahydro-5,8-methanocinnolin-8-yl)pyridin-2-yl)-1H-1,2,4-triazol-3-yl)-2,2,2-trifluoroethanol]
3.6	CC1(C)[C@H]2CC[C@]1(c1cccc(-c3nc([C@H](O)C(F)(F)F)n[nH]3)n1)c1nnc(-c3c(F)cccc3F)cc12 [Example 340, (S)-1-(5-(6-((5R,8S)-3-(2,6-difluorophenyl)-9,9-dimethyl-5,6,7,8-tetrahydro-5,8-methanocinnolin-8-yl)pyridin-2-yl)-1H-1,2,4-triazol-3-yl)-2,2,2-trifluoroethanol]
3.4	CC1(C)[C@H]2CC[C@]1(c1cncc(-c3nc(C#N)co3)n1)c1nnc(-c3c(F)cccc3F)cc12 [Example 341, 2-(6-((5R,8S)-3-(2,6-difluorophenyl)-9,9-dimethyl-5,6,7,8-tetrahydro-5,8-methanocinnolin-8-yl)pyrazin-2-yl)oxazole-4-carbonitrile]
11.7	CC(C)(O)c1cnc(-c2cncc([C@@]34CC[C@@H](c5cc(-c6c(F)cccc6F)nnc53)C4(C)C)n2)o1 [Example 342, 2-(2-(6-((5R,8S)-3-(2,6-difluorophenyl)-9,9-dimethyl-5,6,7,8-tetrahydro-5,8-methanocinnolin-8-yl)pyrazin-2-yl)oxazol-5-yl)propan-2-ol]
1.6	C=C(C)c1cnc(-c2cncc([C@@]34CC[C@@H](c5cc(-c6c(F)cccc6F)nnc53)C4(C)C)n2)o1 [Example 343, 2-(6-((5R,8S)-3-(2,6-difluorophenyl)-9,9-dimethyl-5,6,7,8-tetrahydro-5,8-methanocinnolin-8-yl)pyrazin-2-yl)-5-(prop-1-en-2-yl)oxazole]
1.7	CC(C)(C)OC(=O)N1CC=C(c2nccc([C@@]34CC[C@@H](c5cc(-c6c(F)cccc6F)nnc53)C4(C)C)n2)CC1 [Example 344]
13	CC(C)(C)OC(=O)N1CCC(c2nccc([C@@]34CC[C@@H](c5cc(-c6c(F)cccc6F)nnc53)C4(C)C)n2)CC1 [Example 345]
